“Also recorded” adds a separate entry of the source.
Legend:
Type in all cases: cell-based
[1] = test system: H23 non-small cell lung cancer cells; experiment: MTS cell density assay, synergy of VE-822 with Rucaparib (MacSynergy II); settings: VE-822 + Rucaparib, 96 h, 95% confidence interval
Experimental: (§1) H23 non-small cell lung cancer (a), U2OS osteosarcoma (b), HCT116 colorectal cancer (c), MCF7 breast cancer (d), HT144 melanoma (e), HT29 colorectal cancer (f), and PSN1 pancreatic cancer (g) cells were treated in triplicate with the indicated concentrations of VE-822 and Rucaparib for 96h. Cell density was measured by 3-(4,5-dimethylthiazol-2-yl)-5-(3-carboxymethoxyphenyl)-2-(4-sulfophenyl)-2H-tetrazolium (MTS) assay, and synergy was analyzed at the 95% confidence interval with MacSynergy II software. A range of synergy was observed from strong (a) to negligible (g).
(§2) H23 non-small cell lung cancer (a) and HFL1 normal lung (b) cells were treated in triplicate with the indicated concentrations of VE-822 and Rucaparib for 96h. Cell density was measured by 3-(4,5-dimethylthiazol-2-yl)-5-(3-carboxymethoxyphenyl)-2-(4-sulfophenyl)-2H-tetrazolium (MTS) assay, and synergy was analyzed at the 95% confidence interval with MacSynergy II software.
FIG. 4. […] The synergy plots can be analyzed using methods described in Reaper et al, “Selective Killing of ATM- or p53-deficient cancer cells through inhibition of ATR”, Nat. […]
FIG. 5. […] The synergy plots can be analyzed using methods described in Reaper et al, “Selective Killing of ATM- or p53-deficient cancer cells through inhibition of ATR”, Nat. […]

HFL1 normal lung cells = experiment: as above; settings: VE-822 + Rucaparib, 96 h, 95% confidence interval
Experimental: as §2
FIG. 5. H23 non-small cell lung cancer (a) and HFL1 normal lung (b) cells were treated in triplicate with the indicated concentrations of VE-822 and Rucaparib for 96 h, cell density was measured by 3-(4,5-dimethylthiazol-2-yl)-5-(3-carboxymethoxyphenyl)-2-(4-sulfophenyl)-2H-tetrazolium (MTS) assay and synergy was analyzed at the 95% confidence interval with MacSynergy II software. The synergy plots can be analyzed using methods described in Reaper et al, “Selective Killing of ATM- or p53-deficient cancer cells through inhibition of ATR”, Nat. Chem. Bio. 2011, Apr. 13; 9 (7):428-430.

[2] = test system: H23 non-small cell lung cancer and HFL1 normal lung cells; experiment: MTS cell density assay, triple combination of VE-822, Rucaparib and ionizing radiation; settings: H23 versus HFL1 cells, with 2 Gy IR, 96 h, MacSynergy II modified for triple combination
Experimental: (§3) In FIG. 6A, H23 non-small cell lung cancer (a) and HFL1 normal lung (b) cells were treated in triplicate with the indicated concentrations of VE-822 and Rucaparib together with 2 gray (Gy) of IR. Cell density was measured after 96h by 3-(4,5-dimethylthiazol-2-yl)-5-(3-carboxymethoxyphenyl)-2-(4-sulfophenyl)-2H-tetrazolium (MTS) assay, and synergy was analyzed at the 95% confidence interval with MacSynergy II software modified for triple combination studies (Nguyen et al, PLOS One 5:9332). In FIG. 6B, H23 non-small cell lung cancer (a) and HFL1 normal lung (b) cells were treated in triplicate with the indicated concentrations of VE-822 and Rucaparib together with 80nM cisplatin. Cell density was measured after 96h by 3-(4,5-dimethylthiazol-2-yl)-5-(3-carboxymethoxyphenyl)-2-(4-sulfophenyl)-2H-tetrazolium (MTS) assay, and synergy was analyzed at the 95% confidence interval with MacSynergy II software modified for triple combination studies (Nguyen et al, PLOS One 5:9332).
FIG. 6a. […] The synergy plots can be analyzed using methods described in Reaper et al, “Selective Killing of ATM- or p53-deficient cancer cells through inhibition of ATR”, Nat. […]

[3] = test system: H23, U2OS, HCT116, MCF7, HT144, HT29 and PSN1 cancer cells; experiment: MTS cell density assay, synergy of VE-822 with Rucaparib across a cancer cell line panel; settings: seven cancer cell lines, VE-822 + Rucaparib, 96 h, in vitro
Experimental: as §1
(§4) FIG. 4. H23 non-small cell lung cancer (a), U2OS osteosarcoma (b), HCT116 colorectal cancer (c), MCF7 breast cancer (d), HT144 melanoma (e), HT29 colorectal cancer (f) and PSN1 pancreatic cancer (g) cells were treated in triplicate with the indicated concentrations of VE-822 and Rucaparib for 96 h, cell density was measured by 3-(4,5-dimethylthiazol-2-yl)-5-(3-carboxymethoxyphenyl)-2-(4-sulfophenyl)-2H-tetrazolium (MTS) assay and synergy was analyzed at the 95% confidence interval with MacSynergy II software. A range of synergy was observed from strong (a) to negligible (g). The synergy plots can be analyzed using methods described in Reaper et al, “Selective Killing of ATM- or p53-deficient cancer cells through inhibition of ATR”, Nat. Chem. Bio. 2011, Apr. 13; 9 (7):428-430.

[4] = test system: PSN1 pancreatic cancer cells; experiment: MTS cell density assay, synergy of VE-822 with Rucaparib (MacSynergy II); settings: VE-822 + Rucaparib, 96 h, 95% confidence interval
Experimental: as §1, §4

[5] = test system: H23 non-small cell lung cancer and HFL1 normal lung cells; experiment: MTS cell density assay, triple combination of VE-822, Rucaparib and cisplatin; settings: H23 versus HFL1 cells, with 80 nM cisplatin, 96 h, MacSynergy II modified for triple combination
Experimental: as §3
FIG. 6b. […] The synergy plots can be analyzed using methods described in Reaper et al, “Selective Killing of ATM- or p53-deficient cancer cells through inhibition of ATR”, Nat. […]

CNCc1ccc(-c2cc(-c3nc(-c4ccc(S(=O)(=O)C(C)C)cc4)cnc3N)on2)cc1 [VE-822]
synergy with the PARP inhibitor Rucaparib [1]: strong; also recorded: synergizes with the PARP inhibitor Rucaparib in cancer | synergy with the PARP inhibitor Rucaparib (HFL1 normal lung cells): not normal cells | synergy of the combination of VE-822, Rucaparib and ionizing radiation [2]: cancer-selective synergistic effects | synergy with the PARP inhibitor Rucaparib across cancer cell lines [3]: synergizes with the PARP inhibitor Rucaparib in many (but not all) cancer cell lines | synergy with the PARP inhibitor Rucaparib [4]: negligible | synergy of the combination of VE-822, Rucaparib and cisplatin [5]: cancer-selective synergistic effects

Source: US10478430B2, “Compounds useful as inhibitors of ATR kinase and combination therapies thereof” (Vertex Pharmaceuticals Incorporated, priority 2012, dated 2019)
